Test results: patent US8080371B2, “Markers for addiction” (The Washington University, priority 2006, dated 2011)

Tests used:
[1] = system: α4β2α5N398 nAChR heterologously expressed in HEK293T cells; assay: cell-based; parameters: species or system mouse; details: p<0.0005
Protocol: (§1) HEK293T cells were maintained at 37° C. in a humidified, 5% CO2 environment in Dulbecco's modified Eagle's medium (high glucose, no pyruvate) (DMEM), 10% heat-inactivated fetal bovine serum and antibiotic/antimycotic (100 U/mL penicillin, 100 μg/mL streptomycin and 0.25 μg/mL amphotericin B). Culture reagents were purchased from either Biowhittaker (East Rutherford, N.J., USA) or Invitrogen (Carlsbad, Calif., USA).
(§2) Agonist-evoked changes in intracellular calcium was performed using an aequorin-based luminescence assay as previously described (Karadsheh et al., 2004). HEK293T cells were seeded onto six-well plates (1.5×10^6 cells/well) and were transfected the following day with plasmids (0.25 μg/well for each plasmid) containing a human codon-optimized aequorin cDNA (Vernon and Printen 2002), the mouse α4 and β2 cDNAs and either the wild-type mouse α5 cDNA (D398) or a mouse α5 cDNA in which D398 was mutated to N398. Transfection was performed using either the LipofectAmine Plus Reagent (Invitrogen) or Fugene HD transfection reagent (Roche, Indianapolis, Ind.) as recommended by the manufacturers. […]
(§3) For the epibatidine concentration-response curves, 50 μL of cells were added to each well of a 96-well opaque white plate and placed in a Victor3V plate reader (Perkin Elmer). Following a 1 second baseline read, 50 μl epibatidine was injected onto each sample and luminescence was recorded at 0.2 s intervals for 20 s immediately following the addition of agonist. At the completion of the agonist stimulation, 100 μL of a solution containing 0.1% Triton X-100 and 100 mM CaCl2 was injected into each well and luminescence was recorded for 5 s at 0.1 s intervals. In order to control for differences in cell number per well as well as variation in transfection efficiency and coelenterazine loading, agonist responses were normalized by dividing the maximal peak value for the agonist-stimulated luminescence (L) by the total peak luminescence value (Lmax) (maximal peak agonist-stimulated luminescence+maximal peak luminescence resulting from cell lysis in the presence of high calcium).

[2] = biological target: T1, α4β2α5N398 nAChR heterologously expressed in HEK293T cells (Mus musculus, UniProt O70174+Q2MKA5+Q9ERK7, D397N); assay: cell-based
T1 construct: expressed in transfected cells; host or cells: HEK293T
Protocol: as §1, §2, §3

[3] = biological target: T2, α4β2α5D398 nAChR heterologously expressed in HEK293T cells (Mus musculus, UniProt O70174+Q9ERK7); assay: Aequorin-based luminescence assay of agonist-evoked changes in intracellular calcium; format: cell-based
T2 construct: expressed in transfected cells; host or cells: HEK293T
Protocol: as §1
Agonist-evoked changes in intracellular calcium was performed using an aequorin-based luminescence assay as previously described (Karadsheh et al., 2004). […]
For the epibatidine concentration-response curves, 50 μL of cells were added to each well of a 96-well opaque white plate and placed in a Victor3V plate reader (Perkin Elmer). Following a 1 second baseline read, 50 μl epibatidine was injected onto each sample and luminescence was recorded at 0.2 s intervals for 20 s immediately following the addition of agonist. At the completion of the agonist stimulation, 100 μL of a solution containing 0.1% Triton X-100 and 100 mM CaCl2 was injected into each well and luminescence was recorded for 5 s at 0.1 s intervals. […]

[4] = cigarette smoking, background statement; cited from earlier work

T2 sequence (Q2MKA5 30-467): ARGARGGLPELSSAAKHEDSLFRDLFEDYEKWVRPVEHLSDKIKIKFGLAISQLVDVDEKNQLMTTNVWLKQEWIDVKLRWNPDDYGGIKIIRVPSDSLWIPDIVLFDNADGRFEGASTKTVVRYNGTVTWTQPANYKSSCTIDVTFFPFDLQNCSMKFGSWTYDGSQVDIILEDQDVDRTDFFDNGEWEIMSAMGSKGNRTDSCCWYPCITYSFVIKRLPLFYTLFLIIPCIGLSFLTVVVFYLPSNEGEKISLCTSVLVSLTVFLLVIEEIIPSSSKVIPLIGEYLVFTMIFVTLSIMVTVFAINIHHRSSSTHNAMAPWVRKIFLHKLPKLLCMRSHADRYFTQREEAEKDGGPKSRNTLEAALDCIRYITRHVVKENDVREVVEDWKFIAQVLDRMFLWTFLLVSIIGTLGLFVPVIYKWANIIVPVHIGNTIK
T2 sequence (Q9ERK7 26-501): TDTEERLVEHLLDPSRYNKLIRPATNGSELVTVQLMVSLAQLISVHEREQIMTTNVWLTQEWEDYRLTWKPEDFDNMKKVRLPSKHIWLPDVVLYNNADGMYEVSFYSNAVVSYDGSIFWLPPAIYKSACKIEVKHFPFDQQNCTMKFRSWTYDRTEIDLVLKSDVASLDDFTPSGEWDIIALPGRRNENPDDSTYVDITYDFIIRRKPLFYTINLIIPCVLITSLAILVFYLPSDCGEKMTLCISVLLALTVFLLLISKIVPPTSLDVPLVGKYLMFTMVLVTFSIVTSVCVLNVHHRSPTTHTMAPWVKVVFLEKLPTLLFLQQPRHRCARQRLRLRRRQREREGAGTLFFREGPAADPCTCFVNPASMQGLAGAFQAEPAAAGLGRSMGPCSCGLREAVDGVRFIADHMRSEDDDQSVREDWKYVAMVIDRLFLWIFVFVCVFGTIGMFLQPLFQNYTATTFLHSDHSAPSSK
T2 sequence (O70174 31-629): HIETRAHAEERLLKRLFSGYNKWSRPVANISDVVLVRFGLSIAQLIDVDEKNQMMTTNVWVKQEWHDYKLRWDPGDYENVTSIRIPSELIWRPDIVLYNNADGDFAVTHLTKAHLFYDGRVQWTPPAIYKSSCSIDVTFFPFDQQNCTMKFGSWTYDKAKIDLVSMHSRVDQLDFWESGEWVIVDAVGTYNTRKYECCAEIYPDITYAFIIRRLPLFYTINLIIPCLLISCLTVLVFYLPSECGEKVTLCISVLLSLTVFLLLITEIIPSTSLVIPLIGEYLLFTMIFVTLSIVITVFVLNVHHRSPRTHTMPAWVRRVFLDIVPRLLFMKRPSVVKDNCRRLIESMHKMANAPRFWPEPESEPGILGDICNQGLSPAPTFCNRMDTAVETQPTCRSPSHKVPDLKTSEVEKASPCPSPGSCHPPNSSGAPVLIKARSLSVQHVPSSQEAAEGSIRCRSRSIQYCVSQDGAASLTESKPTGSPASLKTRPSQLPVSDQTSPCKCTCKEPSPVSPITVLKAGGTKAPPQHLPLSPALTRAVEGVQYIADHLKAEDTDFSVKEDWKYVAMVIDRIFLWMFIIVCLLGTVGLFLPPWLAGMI
T1 sequence (Q2MKA5 30-467 D397N): as the sequence (Q2MKA5 30-467) above, with D368N counted along it
T1 sequence (O70174 31-629): as the sequence (O70174 31-629) above
T1 sequence (Q9ERK7 26-501): as the sequence (Q9ERK7 26-501) above

| SMILES | maximal response to agonist per receptor, α4β2α5N398 relative to α4β2α5D398 [1] | EC50 [2] | maximal response to agonist per receptor ([2]; L/Lmax divided by fmol of nAChR per sample well, α4β2α5N398, mean ± SEM, N=12) | EC50 [3] | maximal response to agonist per receptor ([3]; L/Lmax divided by fmol of nAChR per sample well, α4β2α5D398, mean ± SEM, N=12) | time to peak drug level in brain after inhalation [4] |
| --- | --- | --- | --- | --- | --- | --- |
| Clc1ccc(C2CC3CCC2N3)cn1 (stereo not drawn) [epibatidine] | over two-fold higher | 0.0191 ± 0.0014 nM | 0.356±0.022 | 0.0259 ± 0.0015 nM | 0.147±0.01 |  |
| CN1CCCC1c1cccnc1 (stereo not drawn) [nicotine] |  |  |  |  |  | ≤ 10 s |
